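Cultured in 96-well plates, cells were exposed to test compound for 48 hours across five concentrations. GI50 = concentration required for 50% inhibition of growth. TGI: total growth inhibition.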
Tests used:
Assay in all cases: NCI tumour cell line growth inhibition, 48 h; in the data active means GI50 below about 0.43 µM; inactive means the rest
[1] = test system: RPMI-8226 leukemia
[2] = test system: MCF7 breast
[3] = test system: SK-MEL-2 melanoma
[4] = test system: T-47D breast
[5] = test system: UACC-257 melanoma
[6] = test system: HCT-15 colon
[7] = test system: LOX IMVI melanoma
[8] = test system: IGROV1 ovarian
[9] = test system: EKVX NSCLC
[10] = test system: MDA-MB-435
[11] = test system: SR leukemia
[12] = test system: SF-268 CNS
[13] = test system: NCI-H460 lung
[14] = test system: NCI-H226 lung
[15] = test system: OVCAR-4 ovarian
[16] = test system: OVCAR-3 ovarian
[17] = test system: U251 CNS
[18] = test system: MALME-3M melanoma
[19] = test system: HOP-92 NSCLC
[20] = test system: UACC-62 melanoma
[21] = test system: RXF 393 renal
[22] = test system: ACHN renal
[23] = test system: SN12C renal
[24] = test system: OVCAR-8 ovarian
[25] = test system: SNB-75 CNS
[26] = test system: SF-539 CNS
[27] = test system: NCI-H522 lung
[28] = test system: K-562 leukemia
[29] = test system: PC-3 prostate
[30] = test system: MDA-MB-231 breast
[31] = test system: SF-295 CNS
[32] = test system: HT29 colon
[33] = test system: HCT-116 colon
[34] = test system: SK-OV-3 ovarian
[35] = test system: NCI/ADR-RES ovarian
[36] = test system: SK-MEL-5 melanoma
[37] = test system: BT-549 breast
[38] = test system: SNB-19 CNS
[39] = test system: SK-MEL-28 melanoma
[40] = test system: NCI-H23 lung
[41] = test system: CAKI-1 renal
[42] = test system: 786-0 renal
[43] = test system: DU-145 prostate
[44] = test system: KM12 colon
[45] = test system: HCC-2998 colon
[46] = test system: HOP-62 NSCLC
[47] = test system: A498 renal
[48] = test system: OVCAR-5 ovarian
[49] = test system: CCRF-CEM leukemia
[50] = test system: UO-31 renal
[51] = test system: M14 melanoma
[52] = test system: COLO 205 colon
[53] = test system: SW-620 colon
[54] = test system: HS 578T breast

FC(F)(F)c1cc(-c2nnc3n2N=C(N2CCCC2)CS3)cc(C(F)(F)F)c1
24.4 µM: TGI [25]
> 50 µM: TGI [1] | TGI [2] | TGI [3] | TGI [4] | TGI [5] | TGI [6] | TGI [7] | TGI [8] | TGI [9] | TGI [10] | TGI [11] | TGI [12] | TGI [13] | TGI [14] | TGI [15] | TGI [17] | TGI [18] | TGI [19] | TGI [20] | TGI [21] | TGI [22] | TGI [23] | TGI [24] | TGI [26] | TGI [27] | TGI [28] | TGI [29] | TGI [30] | TGI [31] | TGI [32] | TGI [33] | TGI [34] | TGI [35] | TGI [36] | TGI [37] | TGI [38] | TGI [39] | TGI [40] | TGI [41] | TGI [42] | TGI [43] | TGI [44] | TGI [45] | TGI [46] | TGI [47] | TGI [48] | TGI [49] | TGI [50] | TGI [51] | TGI [52] | TGI [53] | TGI [54]
28.8 µM: TGI [16]
inactive: GI50 [1] > 50 µM | GI50 [2] > 50 µM | GI50 [3] > 50 µM | GI50 [4] 19.3 µM | GI50 [5] > 50 µM | GI50 [6] > 50 µM | GI50 [7] > 50 µM | GI50 [8] > 50 µM | GI50 [9] > 50 µM | GI50 [10] > 50 µM | GI50 [11] 48.8 µM | GI50 [12] > 50 µM | GI50 [13] 7.15 µM | GI50 [14] 24.6 µM | GI50 [15] > 50 µM | GI50 [16] 5.27 µM | GI50 [17] 18.1 µM | GI50 [18] > 50 µM | GI50 [19] 25.9 µM | GI50 [20] > 50 µM | GI50 [21] 26.6 µM | GI50 [22] 10 µM | GI50 [23] > 50 µM | GI50 [24] 32.9 µM | GI50 [25] 7.12 µM | GI50 [26] 34 µM | GI50 [27] 24 µM | GI50 [28] > 50 µM | GI50 [29] > 50 µM | GI50 [30] 32.2 µM | GI50 [31] 19.2 µM | GI50 [32] > 50 µM | GI50 [33] 7.99 µM | GI50 [34] 14.3 µM | GI50 [35] > 50 µM | GI50 [36] > 50 µM | GI50 [37] > 50 µM | GI50 [38] 30.2 µM | GI50 [39] > 50 µM | GI50 [40] > 50 µM | GI50 [41] > 50 µM | GI50 [42] 20.3 µM | GI50 [43] > 50 µM | GI50 [44] > 50 µM | GI50 [45] > 50 µM | GI50 [46] 16.7 µM | GI50 [47] > 50 µM | GI50 [48] > 50 µM | GI50 [49] > 50 µM | GI50 [50] > 50 µM | GI50 [51] > 50 µM | GI50 [52] > 50 µM | GI50 [53] > 50 µM | GI50 [54] 17.9 µM
